Laboratory results: PMC11855478, “Bicyclic N,S-Acetals Containing Fused Cysteine-Amide System as New Heterocyclic Class Targeting Human Farnesyltransferase (FTase-h)” (International Journal of Molecular Sciences, 2025)

Legend:
[1] = target: human farnesyltransferase (FTase) (Homo sapiens, UniProt P49354+P49356); experiment: FTase inhibitory assay (fluorescence, Dansyl-GCVLS); type: biochemical; conditions: for % FTI: inhibition of human FTase at 100 μM of tested compound, mean of two experiments
Procedure, shortened: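 Partially purified recombinant FTase with Dansyl-GCVLS and farnesyl pyrophosphate in Tris/HCl pH 7.5 (DTT, MgCl2, ZnCl2, octyl-glucoside); fluorescence (ex 340/em 486 nm) read 15 min at 30 °C. IC50 by regression for compounds inhibiting >60% at 100 µM; kinetics varied FPP (Dns-GCVLS 2.5 μM) or peptide (FPP 10 μM).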

[2] = test system: CCRF-CEM (Leukemia); experiment: NCI one dose, CCRF-CEM; type: cell-based, human; conditions: 1.00E-5 Molar one dose
Protocol: (§1) 3.4. Cell Proliferation Assay
(§2) Selected compounds were tested on a panel of 60 human cancer cell lines at the National Cancer Institute (NCI), Germantown, MD, USA. The cytotoxicity studies were conducted using a 48 h exposure protocol using the sulfo-rhodamine B assay.

[3] = test system: K-562 leukaemia cells; experiment: NCI one dose, K-562; type: cell-based, human; conditions: for Growth Percent: K-562, 1.00E-5 Molar one dose
Protocol: as §1, §2

[4] = test system: MOLT-4 (Leukemia); experiment: NCI one dose, MOLT-4; type: cell-based, human; conditions: MOLT-4, 1.00E-5 Molar one dose
Protocol: as §1, §2

[5] = test system: SR (Leukemia); experiment: NCI one dose, SR; type: cell-based, human; conditions: 1.00E-5 Molar one dose
Protocol: as §1, §2

[6] = test system: EKVX (Non-Small Cell Lung Cancer); experiment: NCI one dose, EKVX; type: cell-based, human; conditions: 1.00E-5 Molar one dose
Protocol: as §1, §2

[7] = test system: HOP-62 (Non-Small Cell Lung Cancer); experiment: NCI one dose, HOP-62; type: cell-based, human; conditions: HOP-62, 1.00E-5 Molar one dose
Protocol: as §1, §2

[8] = test system: HOP-92 (Non-Small Cell Lung Cancer); experiment: NCI one dose, HOP-92; type: cell-based, human; conditions: HOP-92, 1.00E-5 Molar one dose
Protocol: as §1, §2

[9] = test system: NCI-H23 (Non-Small Cell Lung Cancer); experiment: NCI one dose, NCI-H23; type: cell-based, human; conditions: NCI-H23, 1.00E-5 Molar one dose
Protocol: as §1, §2

[10] = test system: NCI-H522 non-small cell lung cancer cells; experiment: NCI cell proliferation, NCI-H522; type: cell-based, human; conditions: for inhibition at 10 µM: read-out: % Cancer cell growth Inhibition (NCI-H522); for Growth Percent: NCI-H522, 1.00E-5 Molar one dose
Protocol: as §1, §2

[11] = test system: HCT-116 (Colon Cancer); experiment: NCI one dose, HCT-116; type: cell-based, human; conditions: HCT-116, 1.00E-5 Molar one dose
Protocol: as §1, §2

[12] = test system: KM12 (Colon Cancer); experiment: NCI one dose, KM12; type: cell-based, human; conditions: KM12, 1.00E-5 Molar one dose
Protocol: as §1, §2

[13] = test system: SF-268 (CNS Cancer); experiment: NCI one dose, SF-268; type: cell-based, human; conditions: SF-268, 1.00E-5 Molar one dose
Protocol: as §1, §2

[14] = test system: SNB-19 (CNS Cancer); experiment: NCI one dose, SNB-19; type: cell-based, human; conditions: SNB-19, 1.00E-5 Molar one dose
Protocol: as §1, §2

[15] = test system: U251 (CNS Cancer); experiment: NCI one dose, U251; type: cell-based, human; conditions: U251, 1.00E-5 Molar one dose
Protocol: as §1, §2

[16] = test system: LOX IMVI (Melanoma); experiment: NCI one dose, LOX IMVI; type: cell-based, human; conditions: 1.00E-5 Molar one dose
Protocol: as §1, §2

[17] = test system: MALME-3M (Melanoma); experiment: NCI one dose, MALME-3M; type: cell-based, human; conditions: 1.00E-5 Molar one dose
Protocol: as §1, §2

[18] = test system: MDA-MB-435 (Melanoma); experiment: NCI one dose, MDA-MB-435; type: cell-based, human; conditions: MDA-MB-435, 1.00E-5 Molar one dose
Protocol: as §1, §2

[19] = test system: SK-MEL-2 (Melanoma); experiment: NCI one dose, SK-MEL-2; type: cell-based, human; conditions: SK-MEL-2, 1.00E-5 Molar one dose
Protocol: as §1, §2

[20] = test system: UACC-62 (Melanoma); experiment: NCI one dose, UACC-62; type: cell-based, human; conditions: UACC-62, 1.00E-5 Molar one dose
Protocol: as §1, §2

[21] = test system: ACHN (Renal Cancer); experiment: NCI one dose, ACHN; type: cell-based, human; conditions: 1.00E-5 Molar one dose
Protocol: as §1, §2

[22] = test system: CAKI-1 (Renal Cancer); experiment: NCI one dose, CAKI-1; type: cell-based, human; conditions: CAKI-1, 1.00E-5 Molar one dose
Protocol: as §1, §2

[23] = test system: RXF 393 (Renal Cancer); experiment: NCI one dose, RXF 393; type: cell-based, human; conditions: RXF 393, 1.00E-5 Molar one dose
Protocol: as §1, §2

[24] = test system: UO-31 renal cancer cells; experiment: NCI one dose, UO-31; type: cell-based, human; conditions: for Growth Percent: UO-31, 1.00E-5 Molar one dose
Protocol: as §1, §2

[25] = test system: PC-3 (Prostate Cancer); experiment: NCI one dose, PC-3; type: cell-based, human; conditions: PC-3, 1.00E-5 Molar one dose
Protocol: as §1, §2

[26] = test system: DU-145 (Prostate Cancer); experiment: NCI one dose, DU-145; type: cell-based, human; conditions: DU-145, 1.00E-5 Molar one dose
Protocol: as §1, §2

[27] = test system: BT-549 (Breast Cancer); experiment: NCI one dose, BT-549; type: cell-based, human; conditions: BT-549, 1.00E-5 Molar one dose
Protocol: as §1, §2

Compound	% FTI [1] [%]	Growth Percent [2] [%]	Growth Percent [3] [%]	Growth Percent [4] [%]	Growth Percent [5] [%]	Growth Percent [6] [%]	Growth Percent [7] [%]	Growth Percent [8] [%]	Growth Percent [9] [%]	inhibition at 10 µM ([10]; Homo sapiens, NCI-H522) [%]	Growth Percent [10] [%]	Growth Percent [11] [%]	Growth Percent [12] [%]	Growth Percent [13] [%]	Growth Percent [14] [%]	Growth Percent [15] [%]	Growth Percent [16] [%]	Growth Percent [17] [%]	Growth Percent [18] [%]	Growth Percent [19] [%]	also measured
COc1ccc(CNC(=O)[C@@H]2CS[C@@]3(C)c4ccccc4C(=O)N23)cc1OC [4bI]	78	81.76	66.10	76.47	75.23	107.62	97.01	93.76	82.91	45	54.70	95.39	102.81	99.31	96.85	93.58	100.38	106.59	105.24	79.40	IC50 ([1]; human FTase in vitro): 0.0251 µM; inhibition at 10 µM ([3]; Homo sapiens, K562, 10 µM single dose, read-out: inhibition of growth of K-562 leukaemia cells): 34%; GI50 ([10]; Homo sapiens, NCI-H522): 12.9 µM; Growth Percent [20]: 79.36%; Growth Percent [21]: 96.90%; Growth Percent [22]: 89.36%; Growth Percent [23]: 104.59%; inhibition at 10 µM ([24]; Homo sapiens, UO-31, 10 µM single dose, read-out: inhibition of growth of UO-31 renal cancer cells): 20%; Growth Percent [24]: 79.77%; Growth Percent [25]: 88.41%; Growth Percent [26]: 103.50%; Growth Percent [27]: 110.79%
COc1cccc(CNC(=O)[C@@H]2CS[C@H]3c4ccccc4C(=O)N23)c1 [4aE]	35	102.31	85.13	80.83	84.95	111.45	96.82	99.32	99.84	26	74.09	102.32	100.40	100.53	104.75	102.42	102.67	107.90	107.01	95.73	Growth Percent [20]: 102.11%; Growth Percent [21]: 110.85%; Growth Percent [22]: 96.42%; Growth Percent [23]: 101.84%; Growth Percent [24]: 97.14%; Growth Percent [25]: 98.06%; Growth Percent [26]: 104.21%; Growth Percent [27]: 110.89%
C[C@@]12SC[C@@H](C(=O)NCc3ccccc3)N1C(=O)c1ccccc12 [4bA]	49	95.36	91.39	93.49	78.43	104.65	100.09	83.94	98.21	25	74.90	97.31	102.18	109.78	100.20	92.28	101.57	107.28	101.35	92.83	Growth Percent [20]: 97.03%; Growth Percent [21]: 102.90%; Growth Percent [22]: 89.87%; Growth Percent [23]: 108.00%; Growth Percent [24]: 99.51%; Growth Percent [25]: 90.34%; Growth Percent [26]: 110.52%; Growth Percent [27]: 106.90%
